Key:
[1] = system: testosterone-treated C57BL/6 mice; assay: Hair regrowth in testosterone-treated animal model; type: in vivo; details: Day 27; topical testosterone daily; 1 mg/kg Finasteride subcutaneous every other day; testosterone-untreated = 100
Procedure: To evaluate whether the composition of the present disclosure promotes hair regrowth, BxC-HAe isolated in Example 2 was administered to a testosterone-treated animal model, and changes in body weight and photographic observations were compared.
Specifically, six-week-old C57BL/6 mice were acclimated for two weeks under conditions of 25° C. and 50% humidity with ad libitum access to food and tap water. Eight-week-old mice were then used for the experiment.
On Day 0, initial depilation was performed using a hair clipper, followed by the application of Niklin (II-dong Pharmaceutical) for 90 seconds for secondary depilation. The area was then rinsed three times with lukewarm water.
In the testosterone-treated group, starting on Day 1, 100 μL of 0.5% (w/w) testosterone dissolved in 50% ethanol was topically applied daily to the depilated dorsal region of each mouse.
Starting from the point when hair regrowth began in the testosterone-untreated group, body weight was measured twice weekly, and photographs were taken once weekly.
Specifically, hair regrowth area and depilated area were measured using ImageJ software, and the ratio of hair regrowth area to depilated area was calculated and analyzed statistically.
The experiment was conducted until Day 27, the point at which hair regrowth was completed in the testosterone-untreated group. […]

[2] = system: testosterone-treated C57BL/6 mice; assay: Ratio of anagen-phase hair follicles in skin tissue (H&E), testosterone-treated animal model; type: in vivo; details: Anagen/(Catagen+Telogen); dorsal skin after 27-day experiment; 1 mg/kg Finasteride subcutaneous
Procedure: To determine whether the composition of the present disclosure inhibits the reduction of hair follicles, the ratio of anagen-phase hair follicles was measured in a testosterone-treated animal model following administration of BxC-HAe isolated in Example 2. Specifically, dorsal skin tissues from each mouse subjected to the 27-day experiment described in Example 8 were collected, embedded in paraffin blocks, and sectioned at a thickness of 5 μm. The tissue sections were then stained using H&E. Subsequently, for each group, randomly selected hair follicles from the dorsal skin of five mice were classified by morphology into anagen (growth phase), catagen (regression phase), and telogen (resting phase). The ratio of anagen hair follicles was calculated using the formula: Anagen/(Catagen+Telogen). The results were presented in FIGS. 20 and 21, and Table 18.

β-catenin = β-catenin immunofluorescence in skin tissue, testosterone-treated animal model; type: in vivo, C57BL/6 mice; details: dorsal skin after 27-day experiment; 1 mg/kg Finasteride; testosterone-untreated = 1
Procedure: To determine whether the composition of the present disclosure modulates the expression of hair loss and regrowth-related factors, a testosterone-treated animal model was administered BxC-HAe isolated in Example 2, and the fluorescence intensity of cells stained with antibodies against androgen receptor (AR) and β-catenin was measured and compared.
Specifically, dorsal skin tissues from each mouse subjected to the 27-day experiment (described in Example 8) were harvested, embedded in paraffin blocks, and sectioned at a thickness of 5 μm, followed by immunofluorescent staining.
The primary antibodies used were rabbit anti-β-catenin (Cell Signaling #9562) and mouse anti-AR (Santa Cruz, sc-7305). The fluorophore-conjugated secondary antibodies were goat anti-rabbit IgG conjugated with Alexa Fluor 488 (Abcam, ab150077) and goat anti-mouse IgG conjugated with Cyanine5 (Invitrogen, a10524).
After completion of the antibody reactions, DAPI staining was performed, and fluorescence patterns were analyzed using a Nikon ECLIPSE Ti2 fluorescence microscope and NIS-Elements software. The results are shown in FIGS. 22-24, and in Tables 19 and 20.

## CC(C)(C)NC(=O)[C@H]1CC[C@H]2[C@@H]3CC[C@H]4NC(=O)C=C[C@]4(C)[C@H]3CC[C@]12C [Finasteride]
[1]
  Hair growth area (%): 68.1%
[2]
  Percentage of hair follicles in growth phase (%): 1.29%
β-catenin
  Fluorescence intensity (β-catenin): 1.05

Reference: patent US20260216247A1, “Composition For Treatment Or Prevention Of Hair Loss Comprising Stem Cell-Derived Exosomes And Preparation Method Therefor” (BREXOGEN INC., priority 2023, published 2026)
